Source: ChEMBL document CHEMBL1146560, “The isolation and structure elucidation of Tasiamide B, a 4-amino-3-hydroxy-5-phenylpentanoic acid containing peptide from the marine Cyanobacterium Symploca sp” (J Nat Prod, 2003)
*1 amine or outer side, *2 acyl side, *3 side chain or, on linkers, in order; H or OH if unused. Where a SMILES comes first, the peptide text is derived from it. [ ]: non-standard residue; d: D form. Ahppa(3S,4S) = O=C(C[C@H](O)[C@H](Cc1ccccc1)N[*:1])[*:2]; dNMeF = CN[C@H](Cc1ccccc1)C(=O)O; NMeQ = CN[C@@H](CCC(N)=O)C(=O)O; Lac = C[C@H](O)C(=O)O

Test system: KB
Assay: Cytotoxicity against human KB cells
Format: functional, cell-based

With `COC(=O)[C@@H]1CCCN1C(=O)[C@@H](Cc1ccccc1)N(C)C(=O)[C@H](C)NC(=O)[C@H](CC(C)C)NC(=O)C[C@H](O)[C@H](Cc1ccccc1)NC(=O)[C@H](CCC(N)=O)N(C)C(=O)[C@@H](NC(=O)[C@H](C)O)C(C)C` [TASIAMIDE B] (H-[Lac]V[NMeQ][Ahppa(3S,4S)]LA[dNMeF]P-OMe) the IC50 was 800 nM.
